The term CC50 denotes the concentration at which the toxic effect on the cells reaches its halfway point. By amount remaining is commonly meant the share of the starting amount still present when the sample was taken. Broadly, the viability is a read-out of living cells in per cent, often relative to untreated cells. A higher viability goes with better survival.

Data set [1] is described as follows: MTT viability assay, A549 cells. Conditions: human. The procedure: (§1) Cell viability is expressed as percentage with respect to the control (cells not treated with the peptides). Data points represent the mean of triplicate samples ±SEM. […] The levels of statistical significance between the two peptides are indicated as follows: **p<0.01, ***p<0.001.
(§2) Cells were plated in wells of a microtiter plate, at 4×10^4 cells/well in DMEM supplemented with 2 mM glutamine and 2% FBS (for A549 cells) or DMEM containing 2 mM glutamine, non-essential amino acids (NEAA), sodium pyruvate and 2% FBS (for Raw 264.7 macrophages). After overnight incubation at 37° C. in a 5% CO2 atmosphere, the medium was replaced with 100 μl fresh serum-free medium supplemented with the peptides at different concentrations. After 24 h of peptide treatment, cell viability was determined by a MTT assay.

A further data set is described as follows: in vitro. Conditions: for Peptide Amount (%): 24 h, 37° C.; for remaining at 5 h, 0.575 mM / remaining at 24 h, 0.575 mM: human. On the procedure:
A total of 125 μl of a 0.92 mM solution of each peptide was incubated at 37° C. with 20 μl and 60 μl human serum. Samples were collected after 5 h and 24 h of incubation, precipitated with 200 μl methanol, and centrifuged for 2 min at 10,000 g.
The crude solution was then analyzed by high-performance liquid chromatography (HPLC) and mass spectrometry. HPLC was performed with a Vydac C18 column, and the crude solution was diluted 5 times with 0.1% trifluoroacetic acid before injection and monitored at 280 nm.

Data set [2] deals with P. aeruginosa ATCC 27853 biofilm. Conditions: 2 hours treatment. The procedure: Data points are the mean±SEM of three independent experiments. The levels of statistically significant differences between the two peptides are indicated as follows *P<0.05, **P<0.01, ***P<0.001
The reference strain and the clinical isolates were grown at 37° C. in Luria-Bertani broth (LB) to mid-log phase (optical density of 0.8 at 590 nm). With the help of tweezers, silicone hydrogel narafilcon A soft CL (1-Day ACUVUE TruEye) were removed from the manufacturer's containers, and washed thrice in phosphate buffered saline (PBS). The lenses were then immersed into wells of a 24-multiwell plate, each well containing 1 mL of bacterial inoculum in 1/10 LB at a concentration of 5×10^4 colony-forming units (CFU)/mL. Noteworthy, the number of bacteria isolated from CL storage cases has been reported to range from 1 to 6×10^4 CFU/case (2, 10). Therefore, in order to reproduce a more realistic level of bacteria to which CLs can be exposed, an inoculum size of 5×10^4 CFU/mL was used for biofilm formation.
The plate was then incubated in a humidified incubator at 37° C. at 125 rpm to allow biofilm formation on the surface of both lens sides. After 20 hours of incubation, each lens was washed thrice with PBS to remove any non-adherent planktonic cells.
The lenses were then transferred into wells of a new 24-multiwell plate, each well containing serial dilutions of Esc-1a(1-21)NH2 and Esc-1a(1-21)-1cNH2 in PBS. For […] controls, the lenses were immersed in sterile PBS. The new plate was then incubated at 37° C. for 2 hours with gentle shaking (125 rpm). After peptide treatment, each lens was washed thrice in PBS and transferred into wells of another 24-multiwell plate, each well containing 350 μL of 0.5 mg/mL of 3-(4,5-dimethylthiazol-2-yl)-2,5-diphenyltetrazolium bromide (MTT, from Sigma Aldrich, Milan, Italy) in Hank's solution (136 mM NaCl; 0.34 mM Na2HPO4; 0.44 mMKH2PO4; 5.4 mM KCl; 4.1 mM NaHCO3 pH 7.2, supplemented with 5.5 mM D-glucose) as previously reported (8). The killing of biofilms was determined as a function of the inhibition of MTT reduction to insoluble formazan crystals by bacterial reductases. The plate was incubated again for 2 hours (125 rpm) at 37° C. Formazan crystals were solubilized by the addition of acidified isopropanol. During overnight incubation at room temperature the resulting purple color was absorbed by the lens. Afterward, each lens was soaked in absolute ethanol (500 μL in each well) to decolor it. Aliquots of 100 μL were finally transferred to the wells of a 96-multiwell plate and absorbance was measured at 590 nm using a microplate reader (Infine M 200, Tecan). Untreated bacterial cells in PBS were the control. Percentage of killing was calculated according to the formula: [1−(Abs of treated samples−Abs of blank/Abs of control samples-Abs of blank)][…], where the blank was the solvent PBS.

Data set [3] deals with A549 lung epithelial cells. In words: Wound healing assay, A549 lung epithelial cells. In kind it is cell-based, human. Conditions: A549 monolayer. On the procedure:
The percentage of cell-covered area at each time point is reported on the y-axis. Control (Ctrl) represents cells not treated with the peptides. All data are the mean of at least three independent experiments ±SEM. […] Both peptides were able to stimulate the closure of the gap produced in the monolayer of A549 cells, with the optimal concentration allowing the almost complete coverage of the wound field equal to 10 μM (for the wild type peptide, FIG. 13A) or 4 μM (for the diastereomer, FIG. 13B) within approximately 24 hours or 20 hours, respectively.
As shown in FIGS. 13A-13B, Esc-1a(1-21)NH2 and its diastereomer both stimulated wound closure although at concentrations much higher than were required to induce a similar effect in human corneal epithelial cells. This may reflect cell specific differences.

The test system of the next data set is Raw 264.7 macrophages. The data set can be described thus: MTT viability assay, Raw 264.7 macrophages. Conditions: 256 μM (highest concentration), 24 h. The procedure: as §1, §2
A further data set relates to P. aeruginosa ATCC 27853. The following applies: soluble free form, 1 μM, within 20 minutes in PBS.
The subject of another data set is HaCaT keratinocytes. The text has this:
Cell viability is expressed as percentage with respect to the control (cells not treated with the peptide). Data points represent the mean of triplicate samples ±SEM.

Another data set has as its system HaCaT cells. In words: Wound healing assay, HaCaT cells. The following applies: HaCaT monolayer. It counts as cell-based, human. On the procedure: The percentage of cell-covered area at each time point is reported on the y-axis. Control (Ctrl) represents cells not treated with the peptide. All data are the mean of at least three independent experiments ±SEM. […] The optimal concentration allowing gap closure was 0.25 μM.
The experimental procedure is similar to that described in Example 6 with the following two differences: (i) 40,000 cells suspended in DMEM supplemented with 4 mM glutamine and 10% FBS were seeded on each side of the ibidi culture inserts instead of 70,000 cells in KGM-2g as for corneal epithelial cells; (ii) serum-free medium was used in the wound healing assay instead of medium supplemented with 5% FBS as for corneal epithelial cells. […] Overall, the experiments indicate that Esc-1a(1-21)NH2 can stimulate wound closure in different types of mammalian cells but this is with a different kinetic or optimal concentration and thus a stereospecific mechanism involving a direct/indirect activation of different signalling transduction cascades (depending on the selected cell type) likely subtends such events.

Data set [4] deals with human telomerase immortalized corneal epithelial cells. The data set can be described thus: in vitro. On the procedure: Human corneal epithelial cells were incubated with varying concentrations of Esc-1a(1-21)NH2 for 24 hrs then cytotoxicity determined by MTT assay. Data are the mean of 3 independent experiments.
To determine the toxicity of Esc-1a(1-21)NH2 to human telomerase immortalized corneal epithelial cells, the following experiment was performed. The MTT (3-(4,5-Dimethylthiazole-2-yl)-2,5-diphenyltetrazolium bromide) assay measures the activity of enzymes that reduce the tetrazolium blue dye to a formazan salt. Mitochondrial reductase enzymes will reduce MTT to formazan, which can be visualized by colorimetric reaction the absorbance of which can be quantified.
MTT assay was performed on human telomerase immortalized corneal epithelial cells treated with different concentrations of the peptide for 24 hrs. The test was performed in triplicate or quadruplicate wells with concentrations of the peptide of up to 100 μM using the following protocol. On day 1, plated the telomerase immortalized epithelial cells at 10,000 cells/well in a 96 well plate. Incubated the plate at 37° C. for […] to allow the cells to attach to the plate and spread. On day 2, incubated the cells in serum free media for at least 6 hrs prior to peptide treatment. On day 3, stimulated the cells with 100, 50, 25, 10, 5, 1, 0.5 and 0.1 μM Esc-1a(1-21)NH2 in quadruplicate for 24 hrs. On day 4, added 50 μl of 0.02% Benzalkonium chloride into 4 wells as a positive control for 15 minutes. Added 50 μl of serum free media into all the other wells (total volume 100 μl). Added 10 μl of MTT stock solution into each of the well. Incubated at 37° C. for 3 hours. At the end of 3 hours purple crystals were visible under the microscope. Added 100 μl of stop solution into each well using a multichannel pipette. Pipetted up and down to dissolve all the crystals. Gently popped the bubbles using a 10 μl tip. Read plate using plate reader at 590 nm abs and 635 nm reference. Subtracted reference OD value (635) from 590 OD value and plotted graph.

Like-named read-outs stand apart in the source and are kept apart here. Non-standard residues stand in square brackets, D forms with d. Residues, ends and D or L forms follow the SMILES beside them.

As for `CC[C@H](C)[C@H](NC(=O)CN)C(=O)N[C@@H](Cc1ccccc1)C(=O)N[C@@H](CO)C(=O)N[C@@H](CCCCN)C(=O)N[C@@H](CC(C)C)C(=O)N[C@@H](C)C(=O)NCC(=O)N[C@@H](CCCCN)C(=O)N[C@@H](CCCCN)C(=O)N[C@H](C(=O)N[C@@H](CCCCN)C(=O)N[C@@H](CC(N)=O)C(=O)N[C@H](CC(C)C)C(=O)N[C@@H](CC(C)C)C(=O)N[C@H](C(=O)N[C@H](CO)C(=O)NCC(=O)N[C@@H](CC(C)C)C(=O)N[C@@H](CCCCN)C(=O)NCC(N)=O)[C@@H](C)CC)[C@@H](C)CC` [Esc-1a(1-21)-1cNH2] (H-GIFSKLAGKKIKN[dL]LI[dS]GLKG-NH2; N-terminus assumed), the CC50 at 24 h in data set [1] was over 256 µM. For the same compound, the results for the “Peptide Amount (%)” value in the data set “in vitro” (10% human fresh serum) and in the data set “in vitro” (30% human fresh serum) were 45.61% and 25.46%, respectively. The share remaining at 5 h, 0.575 mM in the data set “in vitro” (10% human fresh serum) turned out to be 63.3%; in the data set “in vitro” (30% human fresh serum), 30.1%. Further, the figures for the share remaining at 24 h, 0.575 mM in the data set “in vitro” (10% human fresh serum) and in the data set “in vitro” (30% human fresh serum) were 45.6% and 25.5%, respectively. For the same compound, the biofilm killing in data set [2] (4 μM) is about 35%; in data set [2] (32 μM) it was about 90%. Further, the biofilm death in [2] (16 μM) is about 80%. Further, the “optimal concentration allowing almost complete coverage of the wound field” value in data set [3] was 4 µM. In addition, the “time to almost complete coverage of the wound field” value in data set [3] (at optimal concentration) was about 20 h. Besides, the “decrease in the percentage of metabolically-active cells” value in the data set on Raw 264.7 macrophages is recorded as about 20%. In the data set on P. aeruginosa ATCC 27853, the killing is reported as about 90%.
Take `CC[C@@H](C)[C@@H](NC(=O)CN)C(=O)N[C@H](Cc1ccccc1)C(=O)N[C@H](CO)C(=O)N[C@H](CCCCN)C(=O)N[C@H](CC(C)C)C(=O)N[C@H](C)C(=O)NCC(=O)N[C@H](CCCCN)C(=O)N[C@H](CCCCN)C(=O)N[C@@H](C(=O)N[C@H](CCCCN)C(=O)N[C@H](CC(N)=O)C(=O)N[C@H](CC(C)C)C(=O)N[C@H](CC(C)C)C(=O)N[C@@H](C(=O)N[C@H](CO)C(=O)NCC(=O)N[C@H](CC(C)C)C(=O)N[C@H](CCCCN)C(=O)NCC(N)=O)[C@H](C)CC)[C@H](C)CC` [all D Esc-1a(1-21)NH2] (H-G[dI][dF][dS][dK][dL][dA]G[dK][dK][dI][dK][dN][dL][dL][dI][dS]G[dL][dK]G-NH2; N-terminus assumed): in the data set with HaCaT keratinocytes (2 h treatment, 1-64 μM), the “reduction in the number of metabolically-active keratinocytes” value was “did not show any remarkable reduction”. Also, the “toxicity to HaCaT keratinocytes” value in the data set on HaCaT keratinocytes (higher concentration tested, 24 h) was “did not show toxicity”. Further, in the data set on HaCaT cells, the “cell-covered area vs untreated control cells” value is recorded as “no statistically significant difference”.
Compound “benzalkonium chloride [BAC, reference compound]” displayed a cytotoxicity in [4] (positive control (FIG. 4)) of about 100%. Also, the viability in [4] (positive control, 0.02% for 15 minutes) stood at 6.2%.

Source of the values: patent publication US11110195B2, “Esculentin 1a derivatives and uses thereof” (University of Houston System, priority 2013, dated 2021).
